Data from BindingDB's records for doi:10.1021/jm00145a017 (1985).

assay: Intrinsic affinity towards serotonin receptor from rat frontal cortex by displacement of [3H]spiperone.

Question: With `FC(F)(F)c1ccc2c(c1)N1CCNCC1CC2` (stereo not drawn) [9-Trifluoromethyl-2,3,4,4a,5,6-hexahydro-1H-pyrazino[1,2-a]quinoline] as the compound, how does the Ki read?
Answer: Its Ki is 136 nM.

Question: For `FC(F)(F)c1cccc(N2CCNCC2)c1` [TFMPP], which Ki is on record?
Answer: Its Ki is 298 nM.

Question: Which Ki does the source give for `Clc1cncc(N2CCNCC2)n1` [L-630,571] here?
Answer: The Ki was 6000 nM.
